Measured values taken from patent US7915423B2, “Solid states of pantoprazole sodium, processes for preparing them and processes for preparing known pantoprazole sodium hydrates” (Teva Pharmaceutical Industries, Ltd., priority 2002, dated 2011).

Assays:
[1] = Solubility of pantoprazole sodium in alcohols; assay type: physicochemical
Description: Accordingly, initial investigation focused on how this solvate could be produced by crystallization from a solution rather than a heterogeneous technique. We discovered that combining free pantoprazole and solid sodium hydroxide in 1-butanol and crystallization of the resulting pantoprazole sodium salt yielded Form V. The presence of minor amounts of water originating from the use of non-anhydrous 1-butanol, a hydrated starting material or water adsorbed on the equipment used for crystallization has no effect on the crystal form obtained. […] Again, conditions depleted of water, yet not rigorously anhydrous were investigated. We discovered that Form X can be obtained by crystallization from a solution formed by combining free pantoprazole with sodium hydroxide in 1-propanol.

[2] = Thermal interconversion of solid forms on drying, followed by PXRD; assay type: physicochemical
Protocol: The PXRD patterns depicted in the accompanying figures were obtained on a Scintag X-Ray powder diffractometer model X'TRA with a copper tube solid state detector. A round standard aluminum sample holder with round zero background quartz plate was used. Scanning parameters: Range: 2-40°2θ: continuous scan, Rate: 3 deg./min.
The mixture was stirred overnight at ambient temperature, giving the crystals. The crystals were filtered on filter paper.
Pantoprazole sodium Form V was dried at 65° C. under ambient pressure for two hours.
The solution was stirred overnight without precipitation. The solution was allowed to stand overnight in an opened flask with precipitation of the product. The crystals were filtered and allowed to stand at room temperature open to the air for a short period of time but were not otherwise dried.
The pantoprazole sodium Form VI was then dried at 50° C. under a 10 mm Hg vacuum overnight. The resulting powder was analyzed by PXRD and found to be amorphous.

[3] = cited from earlier work
[4] = Thermal interconversion of solid forms on drying, followed by PXRD; assay type: physicochemical; conditions: 100° C. under 10 mm vacuum overnight
[5] = 65° C. under ambient pressure for two hours
[6] = 50° C. under 10 mm Hg vacuum overnight

COc1ccnc(C[S+]([O-])c2nc3ccc(OC(F)F)cc3[nH]2)c1OC (stereo not shown) [Pantoprazole sodium, pantoprazole sodium]
solubility in 1-butanol ([1]; 1-butanol): appreciably soluble
solubility in 1-propanol ([1]; 1-propanol): high solubility

COc1ccnc(C[S+]([O-])c2nc3ccc(OC(F)F)cc3[nH]2)c1OC (stereo not shown) [Form V, pantoprazole sodium]
solid form obtained after drying (PXRD) [2, 5]: pantoprazole sodium Form XIII
solid form obtained after drying (PXRD) ([2]; 65° C. under ambient pressure for two hours, listed as pantoprazole sodium 1-butanol solvate): pantoprazole sodium Form XIII

COc1ccnc(C[S+]([O-])c2nc3ccc(OC(F)F)cc3[nH]2)c1OC (stereo not shown) [Form XIII, pantoprazole sodium]
solid form obtained after further drying ([2]; 65° C. for another two hours under ambient pressure (Form XIII obtained from Form V)): partially amorphous
solid form obtained after drying (PXRD) [2, 5]: amorphous pantoprazole sodium

COc1ccnc(C[S+]([O-])c2nc3ccc(OC(F)F)cc3[nH]2)c1OC (stereo not shown) [Form IV, pantoprazole sodium]
solid form obtained after drying (PXRD) [2, 6]: pantoprazole sodium Form I

COc1ccnc(C[S+]([O-])c2nc3ccc(OC(F)F)cc3[nH]2)c1OC (stereo not shown) [Form VIII, pantoprazole sodium]
solid form obtained after drying ([2]; 50° C. under 10 mm Hg vacuum, time not given): pantoprazole sodium Form I

COc1ccnc(C[S+]([O-])c2nc3ccc(OC(F)F)cc3[nH]2)c1OC (stereo not shown) [Form VI, pantoprazole sodium]
solid form obtained after drying (PXRD) [2, 6]: amorphous

COc1ccnc(C[S+]([O-])c2nc3ccc(OC(F)F)cc3[nH]2)c1OC (stereo not shown) [Form XII, pantoprazole sodium]
solid form obtained after drying (PXRD) [2, 5]: pantoprazole sodium Form XIII
solid form obtained after drying (PXRD) ([2]; 65° C. under ambient pressure for two hours, listed as pantoprazole sodium 2-methylpropanol solvate): pantoprazole sodium Form XIII

COc1ccnc(C[S+]([O-])c2nc3ccc(OC(F)F)cc3[nH]2)c1OC (stereo not shown) [Form XVIII, pantoprazole sodium]
solid form by PXRD as wet sample and after drying ([2]; drying at 50° C.): Form XVIII

COc1ccnc(C[S+]([O-])c2nc3ccc(OC(F)F)cc3[nH]2)c1OC (stereo not shown) [monohydrate, pantoprazole sodium]
solubility in acetone [3]: dissolves with difficulty

COc1ccnc(C[S+]([O-])c2nc3ccc(OC(F)F)cc3[nH]2)c1OC (stereo not shown) [Form XIV, pantoprazole sodium]
solid form obtained after drying (PXRD) [2, 6]: pantoprazole sodium Form XV

COc1ccnc(C[S+]([O-])c2nc3ccc(OC(F)F)cc3[nH]2)c1OC (stereo not shown) [Form XX, pantoprazole sodium]
dehydration on drying ([2]; mild conditions such as 50° C. at 10 mm Hg vacuum): without causing significant dehydration

COc1ccnc(C[S+]([O-])c2nc3ccc(OC(F)F)cc3[nH]2)c1OC (stereo not shown) [Pantoprazole sodium sesquihydrate, pantoprazole sodium]
solid form obtained after drying [4]: amorphous pantoprazole sodium
